Assay results reported in ChEMBL document CHEMBL1201862, “PubChem BioAssay data set” (2004).
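Values below derive from 48-hour exposures of cells grown in 96-well plates, with endpoints linearly interpolated between the two concentrations bracketing the appropriate inhibition level. GI50: concentration for 50% inhibition of growth.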 Active and inactive are the calls of the source. Cut-off read from the data, not from the text of the source: active = GI50 up to about 1.1 µM and inactive = higher.

How the values were obtained:
Test in all cases: growth of human tumour cells (NCI), 48 h
786-0 = tested on: 786-0
COLO 205 = tested on: COLO 205
Hs-578T = tested on: Hs-578T
IGROV-1 = tested on: IGROV-1
KM12 = tested on: KM12
M14 = tested on: M14
MCF7 = tested on: MCF7
NCI-H226 = tested on: NCI-H226
NCI-H23 = tested on: NCI-H23
NCI/ADR-RES = tested on: NCI/ADR-RES
OVCAR-4 = tested on: OVCAR-4
RPMI-8226 = tested on: RPMI-8226
SN12C = tested on: SN12C
SNB-19 = tested on: SNB-19
U-251 = tested on: U-251
UO-31 = tested on: UO-31
NCI-H522 = tested on: NCI-H522
SK-MEL-28 = tested on: SK-MEL-28
SR = tested on: SR
A498 = tested on: A498

Measured: GI50

O=C1C[C@@H](c2ccccc2)O[C@@H](c2ccccc2)C1
inactive: 786-0 > 100 µM | COLO 205 97.5 µM | Hs-578T > 100 µM | IGROV-1 > 100 µM | KM12 > 100 µM | M14 > 100 µM | MCF7 > 100 µM | NCI-H226 > 100 µM | NCI-H23 > 100 µM | NCI/ADR-RES > 100 µM | OVCAR-4 > 100 µM | RPMI-8226 > 100 µM | SN12C 84.7 µM | SNB-19 > 100 µM | U-251 > 100 µM | UO-31 > 100 µM

N=C(N)NS(=O)(=O)c1ccc(/N=N/c2c(O)c(C(=O)O)cc3ccccc23)cc1
inactive: 786-0 > 100 µM | COLO 205 > 100 µM | Hs-578T > 100 µM | IGROV-1 > 100 µM | KM12 > 100 µM | M14 > 100 µM | MCF7 > 100 µM | NCI-H226 > 100 µM | NCI-H23 > 100 µM | NCI-H522 > 100 µM | NCI/ADR-RES > 100 µM | OVCAR-4 > 100 µM | RPMI-8226 > 100 µM | SK-MEL-28 > 100 µM | SN12C > 100 µM | SR > 100 µM | U-251 > 100 µM | UO-31 > 100 µM

CCN(CC)c1c(-c2c(OC(C)C)c(=O)c2=O)c(=O)n2ccsc2c1OC(C)=O
inactive: 786-0 > 100 µM | A498 > 100 µM | COLO 205 > 100 µM | Hs-578T 17.8 µM | IGROV-1 89.9 µM | KM12 > 100 µM | M14 > 100 µM | NCI-H226 > 100 µM | NCI-H23 > 100 µM | NCI-H522 17.5 µM | NCI/ADR-RES > 100 µM | OVCAR-4 > 100 µM | RPMI-8226 34.8 µM | SK-MEL-28 > 100 µM | SN12C > 100 µM | SNB-19 > 100 µM | SR > 100 µM | U-251 > 100 µM | UO-31 > 100 µM

CCN1C2=NCCN2S(=O)(=O)c2ccccc21
inactive: 786-0 > 100 µM | A498 > 100 µM | COLO 205 > 100 µM | Hs-578T > 100 µM | IGROV-1 > 100 µM | KM12 > 100 µM | M14 > 100 µM | MCF7 > 100 µM | NCI-H226 > 100 µM | NCI-H23 > 100 µM | NCI-H522 59 µM | NCI/ADR-RES > 100 µM | OVCAR-4 > 100 µM | SK-MEL-28 > 100 µM | SN12C > 100 µM | SNB-19 > 100 µM | U-251 > 100 µM | UO-31 > 100 µM

S=C(S)NCC1CCC(CNC(=S)S)CC1 (configuration not stated)
inactive: 786-0 4.63 µM | A498 > 100 µM | COLO 205 42 µM | Hs-578T > 100 µM | IGROV-1 18.3 µM | KM12 19.7 µM | M14 82.8 µM | MCF7 17.9 µM | NCI-H23 44.5 µM | NCI-H522 12.7 µM | NCI/ADR-RES 67.8 µM | OVCAR-4 42.8 µM | RPMI-8226 9.18 µM | SK-MEL-28 56.2 µM | SN12C 20.6 µM | SNB-19 > 100 µM | U-251 20.1 µM | UO-31 30.9 µM

O=C1CCSSCCC(=O)Nc2ccccc2N1
inactive: 786-0 > 100 µM | A498 > 100 µM | COLO 205 > 100 µM | Hs-578T > 100 µM | IGROV-1 > 100 µM | KM12 > 100 µM | M14 > 100 µM | NCI-H226 > 100 µM | NCI-H23 > 100 µM | NCI-H522 > 100 µM | NCI/ADR-RES > 100 µM | OVCAR-4 > 100 µM | RPMI-8226 > 100 µM | SK-MEL-28 > 100 µM | SN12C > 100 µM | SNB-19 > 100 µM | SR > 100 µM | U-251 > 100 µM | UO-31 > 100 µM

COc1ccc(N2C(=O)CS(=O)(=O)C2c2cccc(Oc3ccccc3)c2)cc1 (configuration not stated)
inactive: 786-0 4.7 µM | COLO 205 3.29 µM | Hs-578T 3.78 µM | KM12 4.4 µM | M14 3.7 µM | MCF7 1.87 µM | NCI-H226 4.79 µM | NCI-H23 4.99 µM | NCI-H522 2.62 µM | NCI/ADR-RES 2.89 µM | OVCAR-4 5.79 µM | SK-MEL-28 16.2 µM | SN12C 4.65 µM | SNB-19 5.53 µM | SR 1.92 µM | U-251 4.66 µM | UO-31 7.18 µM

NNc1ccccc1Cl
inactive: 786-0 > 100 µM | A498 > 100 µM | COLO 205 29 µM | Hs-578T > 100 µM | IGROV-1 > 100 µM | KM12 > 100 µM | M14 > 100 µM | MCF7 > 100 µM | NCI-H226 > 100 µM | NCI-H23 > 100 µM | NCI-H522 > 100 µM | NCI/ADR-RES > 100 µM | OVCAR-4 91.2 µM | RPMI-8226 > 100 µM | SK-MEL-28 > 100 µM | SN12C > 100 µM | SNB-19 > 100 µM | U-251 48.4 µM | UO-31 89.1 µM

Cn1c(=O)cc(NCc2ccc(Cl)cc2)[nH]c1=O
inactive: 786-0 54 µM | A498 > 100 µM | COLO 205 > 100 µM | Hs-578T 18.8 µM | IGROV-1 > 100 µM | KM12 > 100 µM | M14 > 100 µM | MCF7 31.9 µM | NCI-H226 > 100 µM | NCI-H23 > 100 µM | NCI-H522 34.4 µM | NCI/ADR-RES 72.9 µM | OVCAR-4 > 100 µM | RPMI-8226 > 100 µM | SK-MEL-28 > 100 µM | SN12C > 100 µM | SNB-19 43.3 µM | U-251 40.3 µM | UO-31 51.5 µM

Cc1ccc(S(=O)(=O)NC(=O)NC(Cc2ccc(O)cc2)C(=O)O)cc1 (configuration not stated)
inactive: 786-0 > 100 µM | COLO 205 > 100 µM | Hs-578T > 100 µM | IGROV-1 > 100 µM | KM12 > 100 µM | M14 > 100 µM | NCI-H23 > 100 µM | NCI-H522 > 100 µM | NCI/ADR-RES > 100 µM | OVCAR-4 > 100 µM | RPMI-8226 > 100 µM | SK-MEL-28 > 100 µM | SN12C > 100 µM | SNB-19 > 100 µM | SR > 100 µM | U-251 > 100 µM | UO-31 > 100 µM

COc1cccc(/C=C2\N=C(c3ccccc3)OC2=O)c1
inactive: 786-0 74.5 µM | COLO 205 85.1 µM | Hs-578T 22.5 µM | IGROV-1 34.1 µM | KM12 73.5 µM | M14 81.3 µM | MCF7 > 100 µM | NCI-H226 37.8 µM | NCI-H23 > 100 µM | NCI-H522 12.3 µM | NCI/ADR-RES 25.8 µM | OVCAR-4 53.6 µM | RPMI-8226 35.1 µM | SK-MEL-28 > 100 µM | SN12C 65.2 µM | SNB-19 35.1 µM | SR 23.1 µM | U-251 63.7 µM | UO-31 > 100 µM

CCOC(=O)c1c(-c2ccc(OC)cc2)ccn1C
inactive: 786-0 > 10 µM | COLO 205 > 10 µM | Hs-578T > 10 µM | IGROV-1 > 10 µM | KM12 > 10 µM | M14 > 10 µM | MCF7 > 10 µM | NCI-H226 > 10 µM | NCI-H23 > 10 µM | NCI-H522 > 9.62 µM | NCI/ADR-RES > 10 µM | OVCAR-4 > 10 µM | SK-MEL-28 4.54 µM | SN12C > 10 µM | SNB-19 > 10 µM | SR > 10 µM | U-251 > 10 µM | UO-31 > 10 µM

O[C@@H]1C[C@H](Cl)c2c(Cl)sc(Cl)c21
inactive: 786-0 > 100 µM | COLO 205 > 100 µM | Hs-578T > 100 µM | IGROV-1 > 100 µM | KM12 > 100 µM | M14 > 100 µM | MCF7 13 µM | NCI-H23 > 100 µM | NCI-H522 > 100 µM | NCI/ADR-RES > 100 µM | OVCAR-4 > 100 µM | RPMI-8226 > 100 µM | SK-MEL-28 > 100 µM | SN12C > 100 µM | SNB-19 > 100 µM | SR > 100 µM | U-251 > 100 µM | UO-31 > 100 µM

O/N=C1/CCCc2nonc21
inactive: 786-0 > 100 µM | COLO 205 > 100 µM | Hs-578T > 100 µM | IGROV-1 > 100 µM | KM12 > 100 µM | M14 > 100 µM | MCF7 > 100 µM | NCI-H226 > 100 µM | NCI-H23 > 100 µM | NCI/ADR-RES > 100 µM | OVCAR-4 > 100 µM | RPMI-8226 > 100 µM | SK-MEL-28 > 100 µM | SN12C > 100 µM | SNB-19 > 100 µM | SR > 100 µM | U-251 > 100 µM | UO-31 > 100 µM

N=C(N)C(/N=N\c1ccccc1)C(N)=O (configuration not stated)
inactive: 786-0 > 100 µM | A498 66.5 µM | COLO 205 > 100 µM | Hs-578T > 100 µM | IGROV-1 > 100 µM | KM12 59.4 µM | M14 > 100 µM | MCF7 > 100 µM | NCI-H226 > 100 µM | NCI-H23 > 100 µM | NCI-H522 > 100 µM | NCI/ADR-RES > 100 µM | OVCAR-4 53.7 µM | RPMI-8226 > 100 µM | SK-MEL-28 > 100 µM | SN12C > 100 µM | SNB-19 > 100 µM | U-251 > 100 µM | UO-31 > 100 µM
